Test results: article PMC12645437, “Orthogonal IMiD-Degron Pairs Induce Selective Protein Degradation in Cells” (ACS Chemical Biology, 2025)
Several values for one entry are separate records, joined by “and”; a condition that tells them apart may be missing. Identical values can stand only once. Like-named read-outs stand apart in the source and are kept apart here.

Key:
Jurkat cells = assay: TMTpro quantitative proteomics, 16 h; details: Jurkat whole cell extracts, TMTpro SPS-MS3
Description: (§1) Quantitative proteomics screens were carried out in untransduced Jurkat cells, embryonic stem cells (ESCs), and the multiple myeloma cell line, MM.1S. We used Jurkat cells, as our work up to this point had employed this cell line, and we selected ESCs and MM.1S cells as they express known CRBN neosubstrates, including IKZF1, IKZF3, RAB28, RNF166, SALL4, ZFP91, and ZNF827.
(§2) Proteomics - cell lysis and protein digestion
(§3) The viability of Jurkat cells was tested after 16-h treatment with corresponding chemicals
viable cells in each condition. Next, ~10^7 cells per condition were collected by centrifugation (1000 rpm), washed twice with ice-cold PBS, and lysed in RIPA buffer [50 mM HEPES pH 7.4, 150 mM NaCl, 1% sodium deoxycholate, 1% NP-40, 0.1% SDS, 10 mM sodium pyrophosphate, 10 mM β-glycerophosphate, 2.5 mM MgCl2, 200 µM TCEP, phosphatase and protease inhibitor cocktail (in-house)], to produce whole cell extracts. Whole-cell extracts were sonicated, and protein concentrations were determined using the Bradford assay. Protein extracts (100 µg) were subjected to disulfide bond reduction with 5 mM TCEP (10 min) and alkylation with 25 mM chloroacetamide (20 min). Methanol–chloroform precipitation was performed prior to protease digestion. In brief, four parts of neat methanol were added to each sample and vortexed, one part chloroform was added to the sample and vortexed, and finally, three parts water was added to the sample and vortexed. The sample was centrifuged at 8000 rpm for 5 min at room temperature and subsequently washed twice with 100% methanol. Samples were resuspended in 100 mM EPPS pH8.5 containing
0.1% RapiGest and digested at 37 °C for 6 h with trypsin at a 100:1 protein-to-protease ratio.
Samples were then subjected to TMTpro
labeling. The preparation of MM1S cell extracts was conducted using the same procedure as for
Jurkat cells. ESC cells were plated onto 6 cm dishes 24 hours prior to the chemical treatment.
Following the chemical treatment, the cells on the dish were washed with DPBS four times, after
which RIPA buffer was added directly to the dish, and the lysate was collected using a scraper.
The whole cell lysates were then processed similarly to the Jurkat cell lysates.
Proteomics - Tandem mass tag labeling
Proline-based reporter isobaric Tandem Mass Tag (TMTpro) labeling of dried peptide samples
resuspended in 100 mM EPPS pH 8.5, was carried out as follows. TMTpro reagent was added to
samples (100 µg peptide), along with acetonitrile, to achieve a final acetonitrile concentration of
approximately 30% (v/v). Following incubation at room temperature for 1 h, the labeling efficiency
of a small aliquot was tested. The reaction was then quenched with hydroxylamine to a final
concentration of 0.5% (v/v) for 15 min. The TMTpro-labeled samples were pooled together at a
1:1 ratio. The sample was vacuum centrifuged to near dryness and subjected to C18 solid-phase
The dried TMTpro-labeled sample was resuspended in 100 μL of 10 mM NH4HCO3 pH 8.0 and
fractionated using basic pH reverse phase HPLC 40. Briefly, samples were offline fractionated over
a 90 min run, into 96 fractions by high pH reverse-phase HPLC (Agilent LC1260) through an aeris
peptide xb-c18 column (Phenomenex; 250 mm × 3.6 mm) for total proteome with mobile phase A
containing 5% acetonitrile and 10 mM NH4HCO3, and mobile phase B containing 90% acetonitrile

[1] = target: T1, endogenous IKZF3 in Jurkat cells (Homo sapiens, UniProt Q96SW2+Q9UKT9); assay: Western blot for endogenous IKZF3; format: cell-based
T1 construct: endogenous in cells; host or cells: Jurkat (transduced with ZF-EGFP constructs, or untransduced)
T1 sequence (Q9UKT9 whole entry): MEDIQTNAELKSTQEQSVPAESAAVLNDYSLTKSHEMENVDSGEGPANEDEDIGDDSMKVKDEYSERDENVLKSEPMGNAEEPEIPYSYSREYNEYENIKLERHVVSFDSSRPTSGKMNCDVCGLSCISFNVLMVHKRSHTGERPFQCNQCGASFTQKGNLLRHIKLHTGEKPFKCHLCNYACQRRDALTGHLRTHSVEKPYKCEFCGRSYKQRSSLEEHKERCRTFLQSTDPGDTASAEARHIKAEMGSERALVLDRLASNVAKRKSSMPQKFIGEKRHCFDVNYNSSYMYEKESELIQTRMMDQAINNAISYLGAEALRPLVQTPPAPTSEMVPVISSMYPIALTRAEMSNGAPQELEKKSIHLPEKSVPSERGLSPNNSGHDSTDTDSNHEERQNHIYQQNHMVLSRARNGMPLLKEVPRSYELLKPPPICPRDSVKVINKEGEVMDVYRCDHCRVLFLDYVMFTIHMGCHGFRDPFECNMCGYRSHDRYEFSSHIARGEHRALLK
T1 sequence (Q96SW2 whole entry): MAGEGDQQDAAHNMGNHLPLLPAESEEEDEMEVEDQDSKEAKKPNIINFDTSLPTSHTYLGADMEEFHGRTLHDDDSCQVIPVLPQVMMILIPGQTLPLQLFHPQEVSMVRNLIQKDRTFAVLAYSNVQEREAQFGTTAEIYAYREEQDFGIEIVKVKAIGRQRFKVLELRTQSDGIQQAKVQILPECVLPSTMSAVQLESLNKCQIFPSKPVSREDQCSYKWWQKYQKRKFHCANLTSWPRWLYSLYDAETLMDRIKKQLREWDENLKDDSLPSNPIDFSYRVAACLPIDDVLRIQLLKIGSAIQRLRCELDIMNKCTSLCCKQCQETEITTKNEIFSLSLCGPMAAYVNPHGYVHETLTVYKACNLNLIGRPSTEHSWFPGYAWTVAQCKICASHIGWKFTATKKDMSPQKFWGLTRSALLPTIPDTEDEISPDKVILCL
T1 sequence (Q16531 whole entry partner): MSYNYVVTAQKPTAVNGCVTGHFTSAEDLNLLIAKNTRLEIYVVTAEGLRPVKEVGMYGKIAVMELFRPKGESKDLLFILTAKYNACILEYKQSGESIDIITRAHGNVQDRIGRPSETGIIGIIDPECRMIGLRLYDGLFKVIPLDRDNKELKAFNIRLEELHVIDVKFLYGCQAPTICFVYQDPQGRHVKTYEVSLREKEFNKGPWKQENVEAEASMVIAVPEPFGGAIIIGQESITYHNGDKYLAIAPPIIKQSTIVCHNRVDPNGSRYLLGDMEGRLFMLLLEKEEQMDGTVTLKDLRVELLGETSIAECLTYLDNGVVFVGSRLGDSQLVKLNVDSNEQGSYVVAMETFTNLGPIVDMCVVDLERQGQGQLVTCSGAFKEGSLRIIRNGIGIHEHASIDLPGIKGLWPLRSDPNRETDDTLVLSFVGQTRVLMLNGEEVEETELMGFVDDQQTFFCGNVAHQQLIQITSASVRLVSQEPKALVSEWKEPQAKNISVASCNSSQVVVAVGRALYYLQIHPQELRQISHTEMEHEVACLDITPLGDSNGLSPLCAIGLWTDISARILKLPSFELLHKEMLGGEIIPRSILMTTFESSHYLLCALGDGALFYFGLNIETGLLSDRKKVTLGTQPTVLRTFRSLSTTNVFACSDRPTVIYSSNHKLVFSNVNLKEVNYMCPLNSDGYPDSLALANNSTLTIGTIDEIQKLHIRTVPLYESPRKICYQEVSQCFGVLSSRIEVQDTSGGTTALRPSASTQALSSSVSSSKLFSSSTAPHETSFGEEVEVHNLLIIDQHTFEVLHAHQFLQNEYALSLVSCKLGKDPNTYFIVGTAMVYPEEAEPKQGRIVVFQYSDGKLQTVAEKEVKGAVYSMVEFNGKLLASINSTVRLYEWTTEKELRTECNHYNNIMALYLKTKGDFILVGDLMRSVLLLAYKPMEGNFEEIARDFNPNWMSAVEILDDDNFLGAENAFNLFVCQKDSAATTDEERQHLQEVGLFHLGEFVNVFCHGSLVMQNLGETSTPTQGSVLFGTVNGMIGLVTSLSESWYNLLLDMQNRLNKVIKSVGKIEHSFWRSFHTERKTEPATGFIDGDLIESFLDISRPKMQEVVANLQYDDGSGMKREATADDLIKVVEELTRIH

[2] = target: T2, ZF-EGFP fusion protein with the HEIP, AEVK, WEIS, or WT ZF degron (Homo sapiens, UniProt Q9UKT9); assay: Western blot for ZF-EGFP fusion protein; format: cell-based
T2 construct: The degron spans residues 130–189 of IKZF3; expressed in transfected cells; host or cells: Jurkat, lentivirally transduced, presorted mCherry+
T2 sequence (Q96SW2 whole entry, the tested form may be a part): as the sequence (Q96SW2 whole entry) above
T2 sequence (Q9UKT9 130-189): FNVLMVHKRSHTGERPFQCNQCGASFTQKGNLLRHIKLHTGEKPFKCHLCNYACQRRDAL
T2 sequence (Q16531 2-1140, further chain): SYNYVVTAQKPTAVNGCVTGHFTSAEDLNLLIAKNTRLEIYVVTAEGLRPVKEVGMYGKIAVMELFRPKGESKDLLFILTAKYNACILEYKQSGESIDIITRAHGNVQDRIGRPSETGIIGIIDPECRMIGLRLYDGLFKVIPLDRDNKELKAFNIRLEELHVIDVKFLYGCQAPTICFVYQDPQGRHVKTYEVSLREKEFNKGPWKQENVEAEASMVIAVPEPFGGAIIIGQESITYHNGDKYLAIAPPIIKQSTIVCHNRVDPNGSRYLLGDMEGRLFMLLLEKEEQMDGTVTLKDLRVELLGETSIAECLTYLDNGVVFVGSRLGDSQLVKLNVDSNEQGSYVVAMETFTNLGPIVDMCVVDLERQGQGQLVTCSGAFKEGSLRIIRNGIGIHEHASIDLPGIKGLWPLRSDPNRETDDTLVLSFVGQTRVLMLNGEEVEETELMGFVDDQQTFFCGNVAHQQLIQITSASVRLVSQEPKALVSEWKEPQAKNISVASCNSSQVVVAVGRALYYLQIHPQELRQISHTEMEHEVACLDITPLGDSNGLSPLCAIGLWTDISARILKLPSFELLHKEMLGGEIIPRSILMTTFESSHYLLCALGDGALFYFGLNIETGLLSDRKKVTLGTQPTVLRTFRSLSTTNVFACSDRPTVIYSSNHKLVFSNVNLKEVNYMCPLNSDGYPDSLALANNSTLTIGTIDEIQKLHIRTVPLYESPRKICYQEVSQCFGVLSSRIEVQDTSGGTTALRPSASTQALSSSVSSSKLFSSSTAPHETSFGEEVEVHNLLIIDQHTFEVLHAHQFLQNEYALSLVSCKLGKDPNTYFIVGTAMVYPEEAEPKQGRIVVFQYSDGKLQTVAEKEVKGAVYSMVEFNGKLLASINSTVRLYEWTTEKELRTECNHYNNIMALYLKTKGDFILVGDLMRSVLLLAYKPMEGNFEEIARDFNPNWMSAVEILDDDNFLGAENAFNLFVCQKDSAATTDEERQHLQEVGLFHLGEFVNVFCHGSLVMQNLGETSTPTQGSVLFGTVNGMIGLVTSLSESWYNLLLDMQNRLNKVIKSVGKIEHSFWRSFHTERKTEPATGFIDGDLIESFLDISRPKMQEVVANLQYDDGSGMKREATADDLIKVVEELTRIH

MM.1S cells = assay: TMTpro quantitative proteomics, 16 h; details: 1 μM
Description: as §1, §2, §3
viable cells in each condition. Next, ~10^7 cells per condition were collected by centrifugation (1000 rpm), washed twice with ice-cold PBS, and lysed in RIPA buffer [50 mM HEPES pH 7.4, 150 mM NaCl, 1% sodium deoxycholate, 1% NP-40, 0.1% SDS, 10 mM sodium pyrophosphate, 10 mM β-glycerophosphate, 2.5 mM MgCl2, 200 µM TCEP, phosphatase and protease inhibitor cocktail (in-house)], to produce whole cell extracts. Whole-cell extracts were sonicated, and protein concentrations were determined using the Bradford assay. Protein extracts (100 µg) were subjected to disulfide bond reduction with 5 mM TCEP (10 min) and alkylation with 25 mM chloroacetamide (20 min). Methanol–chloroform precipitation was performed prior to protease digestion. […]

[3] = target: T3, Q147A mutant degron (ANQS) fused to EGFP (Homo sapiens, UniProt Q96SW2+Q9UKT9, Q147A); assay: Ratiometric EGFP:mCherry flow cytometry degradation assay, 18 h; format: cell-based; details: Jurkat, read-out: DMax Q147A/%
T3 construct: pLVX-Sprout-IKZF3 130-189aa Q147A (ANQS); expressed in transfected cells
T3 sequence (Q9UKT9 130-189 Q147A): as the sequence (Q9UKT9 130-189) above, with Q18A counted along it
T3 sequence (Q96SW2 whole entry, the tested form may be a part): as the sequence (Q96SW2 whole entry) above
T3 sequence (Q16531 whole entry partner, the tested form may be a part): as the sequence (Q16531 whole entry partner) above

[4] = target: T4, endogenous IKZF1 in Jurkat cells (Homo sapiens, UniProt Q13422+Q96SW2); assay: Endogenous IKZF1 immunostaining, fluorescent antibody flow cytometry assay; format: cell-based; details: 18 h
T4 construct: endogenous in cells; host or cells: Jurkat (untransduced for immunostaining; WEIS-EGFP-transduced for the blot)
T4 sequence (Q13422 whole entry): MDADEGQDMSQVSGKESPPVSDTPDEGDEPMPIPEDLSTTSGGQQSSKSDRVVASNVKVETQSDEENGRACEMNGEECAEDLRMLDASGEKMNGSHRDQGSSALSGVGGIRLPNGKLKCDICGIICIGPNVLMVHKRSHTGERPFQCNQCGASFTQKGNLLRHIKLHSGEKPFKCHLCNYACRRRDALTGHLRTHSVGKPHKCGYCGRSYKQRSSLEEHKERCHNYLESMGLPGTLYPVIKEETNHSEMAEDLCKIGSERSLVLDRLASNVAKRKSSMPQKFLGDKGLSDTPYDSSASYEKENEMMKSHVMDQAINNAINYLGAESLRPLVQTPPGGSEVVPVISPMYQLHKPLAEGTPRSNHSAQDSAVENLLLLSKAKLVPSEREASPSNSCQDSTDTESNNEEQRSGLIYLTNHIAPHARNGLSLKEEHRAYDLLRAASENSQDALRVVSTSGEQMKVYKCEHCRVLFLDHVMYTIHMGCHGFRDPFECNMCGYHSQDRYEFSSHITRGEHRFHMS
T4 sequence (Q96SW2 whole entry): as the sequence (Q96SW2 whole entry) above
T4 sequence (Q16531 whole entry partner): as the sequence (Q16531 whole entry partner) above
Description: As we sought to screen a large number of mutant ZF degrons with different mutation combinations, we pursued a library screen approach similar to that previously employed by Sievers et al. and Jan et al. , Only the most promising compounds from the original set of 36 were used for the library screen. To help narrow the candidates, a subset of compounds was tested for endogenous IKZF1 degradation in Jurkat cells using a fluorescent antibody flow cytometry assay (Figure S5). […] Thalidomide and lenalidomide were also included as controls.
Endogenous IKZF1 Immunostaining
37 °C and 5% CO2. Following incubation, cells were stained with LIVE/DEAD™ Fixable Aqua Dead Cell Stain (Thermo) diluted 1000X in PBS for 30 min at room temperature and then incubated with Human TruStain FcX block (Biolegend) diluted 40X in PBS + 1% FBS (Gibco) for 10 min at room temperature. Intranuclear staining of IKZF1 was carried out using the Transcription Factor Buffer Set (BD Bioscience) according to the manufacturer's protocol and staining with IKZF1 AF488 antibody (clone R32-1149, BD Bioscience) diluted 40X for 30 minutes at room temperature. Cells were acquired on a Cytoflex S (Beckman Coulter) and data analysed using FlowJo 10.8.1 9 (BD).

[5] = tested on: library of 8380 IKZF3 degrons fused to EGFP in Jurkat cells; assay: Pooled mutant ZF degron library screen (FACS EGFPlow vs EGFP+, NGS), 18 h; format: cell-based, human;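 as to logFC: Log2 fold change of EGFPlow over EGFP+ representation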
[6] = protein AADAT isoform 2 (Q8N5Z0-2)
[7] = WT degron, residues 146/147/149/150/152/153/154/155/167: FQNQGASFL
[8] = degron residues 146/147/149/150/152/153/154/155/167: FADIGAAFL
[9] = degron residues 146/147/149/150/152/153/154/155/167: FADIGACFL
[10] = degron residues 146/147/149/150/152/153/154/155/167: FADIGADFL
[11] = degron residues 146/147/149/150/152/153/154/155/167: FADIGAEFL
[12] = degron residues 146/147/149/150/152/153/154/155/167: FREIGAPFL
[13] = degron residues 146/147/149/150/152/153/154/155/167: FYEVGACFL

## Nc1cccc2c1C(=O)N(C1CCC(=O)NC1=O)C2=O (centres unmarked) [Compound 2, pomalidomide]
Jurkat cells; protein A2M (P01023)
  Scaled value (to 150), replicate 01: 7.144
  Scaled value (to 150), replicate 02: 8.281
  Scaled value (to 150), replicate 03: 7.913
Jurkat cells; protein AAAS (Q9NRG9)
  Scaled value (to 150), replicate 01: 9.781
  Scaled value (to 150), replicate 02: 9.111
  Scaled value (to 150), replicate 03: 9.328
Jurkat cells; protein AACS (Q86V21)
  Scaled value (to 150), replicate 01: 9.6081
  Scaled value (to 150), replicate 02: 10.2184
  Scaled value (to 150), replicate 03: 9.9438
Jurkat cells; [6]
  Scaled value (to 150), replicate 01: 9.467
  Scaled value (to 150), replicate 02: 10.1133
  Scaled value (to 150), replicate 03: 9.458
[1]
  degradation of endogenous IKZF3 (Western blot): did cause IKZF3 degradation
  endogenous IKZF3 levels (Western blot): depleted endogenous IKZF3
[2]
  degradation of WT degron-tagged EGFP (Western blot): induced degradation of EGFP
MM.1S cells
  proteins significantly degraded (quantitative proteomics): IKZF1, IKZF3, and at least 6 other proteins were significantly degraded
[3]
  Dmax: 94%

## O=C1CCC(N2C(=O)c3ccc(N4CCOCC4)cc3C2=O)C(=O)N1 (centres unmarked) [Compound 22]
[4]
  degradation of endogenous IKZF1: did not induce degradation of endogenous IKZF1
[5]; [7]
  Log2FC: -1.0370
[5]; [8]
  logFC: 2.037
[5]; [9]
  logFC: 0.5955
[5]; [10]
  logFC: -1.619
[5]; [11]
  logFC: -0.4533
[5]; degron residues 146/147/149/150/152/153/154/155/167: FFEIGACFL
  Log2FC: 3.8315
[5]; degron residues 146/147/149/150/152/153/154/155/167: FIPVGAPFL
  Log2FC: 3.937
[5]; [12]
  Log2FC: 3.9835 and 3.984
[5]; degron residues 146/147/149/150/152/153/154/155/167: FWDVGANFL
  Log2FC: 3.8903
[5]; degron residues 146/147/149/150/152/153/154/155/167: FWDVGAQFL
  Log2FC: 3.8513
[5]; degron residues 146/147/149/150/152/153/154/155/167: FWEIGAAFL
  Log2FC: 3.8306
[5]; degron residues 146/147/149/150/152/153/154/155/167: FWEIGAQFL
  Log2FC: 3.9298 and 3.93
[5]; degron residues 146/147/149/150/152/153/154/155/167: FWEVGAAFL
  Log2FC: 3.9041
[5]; degron residues 146/147/149/150/152/153/154/155/167: FWEVGAHFL
  Log2FC: 3.9186
[5]; degron residues 146/147/149/150/152/153/154/155/167: FWEVGAKFL
  Log2FC: 3.8571
[5]; degron residues 146/147/149/150/152/153/154/155/167: FWEVGANFL
  Log2FC: 3.8564
[5]; degron residues 146/147/149/150/152/153/154/155/167: FWPVGANFL
  Log2FC: 3.8155
[5]; degron residues 146/147/149/150/152/153/154/155/167: FWPVGAQFL
  Log2FC: 3.9190
[5]; degron residues 146/147/149/150/152/153/154/155/167: FYEIGAKFL
  Log2FC: 3.8391
[5]; degron residues 146/147/149/150/152/153/154/155/167: FYEIGATFL
  Log2FC: 4.0154 and 4.054
[5]; [13]
  Log2FC: 3.8457
[5]; degron residues 146/147/149/150/152/153/154/155/167: FYEVGANFL
  Log2FC: 3.8762
[5]; degron residues 146/147/149/150/152/153/154/155/167: FYEVGASFL
  Log2FC: 3.8615
[5]; degron residues 146/147/149/150/152/153/154/155/167: FYEVGATFL
  Log2FC: 4.1392 and 4.14
[5]; degron residues 146/147/149/150/152/153/154/155/167: LYEIGFRCL
  Log2FC: 3.9018
[3]; 18 h, Fig 2B
  Dmax: 76%

## O=C1CCC(N2C(=O)c3cccc(NC(c4ccccc4)c4ccccc4)c3C2=O)C(=O)N1 (centres unmarked) [Compound 33]
[4]
  degradation of endogenous IKZF1: modest degradation of IKZF1
[5]; [7]
  Log2FC: -1.2556
[5]; [8]
  logFC: -0.4744
[5]; [9]
  logFC: -0.1939
[5]; [10]
  logFC: -2.168
[5]; [11]
  logFC: -2.426
[5]; degron residues 146/147/149/150/152/153/154/155/167: FGPVGAFFL
  Log2FC: 3.1139
[5]; degron residues 146/147/149/150/152/153/154/155/167: FMEIGAAFL
  Log2FC: 3.1949
[5]; degron residues 146/147/149/150/152/153/154/155/167: FMEIGAPFL
  Log2FC: 3.1328
[5]; degron residues 146/147/149/150/152/153/154/155/167: FMEVGAPFL
  Log2FC: 3.1157
[5]; degron residues 146/147/149/150/152/153/154/155/167: FMNIGAPFL
  Log2FC: 3.2358 and 3.236
[5]; degron residues 146/147/149/150/152/153/154/155/167: FMPIGAPFL
  Log2FC: 3.0896
[5]; degron residues 146/147/149/150/152/153/154/155/167: FMPVGAAFL
  Log2FC: 3.0783
[5]; degron residues 146/147/149/150/152/153/154/155/167: FMPVGAPFL
  Log2FC: 3.0869
[5]; degron residues 146/147/149/150/152/153/154/155/167: FRDIGAPFL
  Log2FC: 3.3226 and 3.323
[5]; degron residues 146/147/149/150/152/153/154/155/167: FRDVGAPFL
  Log2FC: 3.2095
[5]; [12]
  Log2FC: 3.3123
[5]; degron residues 146/147/149/150/152/153/154/155/167: FREVGAPFL
  Log2FC: 3.3928 and 3.393
[5]; degron residues 146/147/149/150/152/153/154/155/167: FRPVGAPFL
  Log2FC: 3.2684 and 3.268
[5]; degron residues 146/147/149/150/152/153/154/155/167: FYEIGAQFL
  Log2FC: 3.1346
[5]; [13]
  Log2FC: 3.1049
[5]; degron residues 146/147/149/150/152/153/154/155/167: LCPIGFTCL
  Log2FC: 3.1410
[5]; degron residues 146/147/149/150/152/153/154/155/167: LCPIGFYCL
  Log2FC: 3.1590
[5]; degron residues 146/147/149/150/152/153/154/155/167: LYEIGFSCL
  Log2FC: 3.0997
[5]; degron residues 146/147/149/150/152/153/154/155/167: LYEIGFTCL
  Log2FC: 3.1905
[5]; degron residues 146/147/149/150/152/153/154/155/167: LYPIGFSCL
  Log2FC: 3.0902
[3]; 18 h, Fig 2B
  Dmax: 97%
